Test results published in patent US8293769B2, “CSF-1R inhibitors, compositions, and methods of use” (Novartis AG, priority 2008, dated 2012).

Legend:
[1] = target: T1, PDGFRb (Homo sapiens, UniProt P09619); test: PDGFRb kinase in vitro biochemical assay (alphascreen); settings: tested at about 1 μM; read-out: PDGF RK BETA percent inhibition
T1 construct: The kinase domain of PDGFRβ was assayed in 50 mM Hepes; purchased Invitrogen P3082

[2] = target: T2, full-length human CSF-1R receptor (Homo sapiens, UniProt P07333); test: In vitro inhibition of CSF-1R receptor tyrosine phosphorylation in transfected HEK293H cells; assay type: cell-based; settings: HEK293-H, tested at about 1 μM, 50 ng/mL MCSF, read-out: PCSF1R percent inhibition
T2 construct: transfected with the full-length human CSF-1R receptor cloned in house; expressed in transfected cells; host or cells: HEK293H (Invitrogen Cat. #11631017)
Protocol: To test the inhibition of CSF-1R receptor tyrosine phosphorylation, HEK293H purchased from Invitrogen Cat. #11631017 cells transfected with the full-length human CSF-1R receptor cloned in house into mammalian episomal transfection vector were incubated for 1 h with serial dilutions of compounds starting at 10 μM with 3 fold dilutions and then stimulated for 8 min with 50 ng/mL MCSF. After the supernatant was removed, the cells were lysed on ice with lysis buffer (150 mM NaCl, 20 mM Tris, pH 7.5, 1 mM EDTA, 1 mM EGTA, 1% Triton X-100 and NaF, protease and phosphatase inhibitors) and then shaken for 15-20 min at 4° C. The lysate was then transferred to total CSF-1R antibody coated 96-well plates that had already been blocked with 3% Blocker A from Mesoscale discovery (MSD) for 2 hours and washed afterwards. Lysates were incubated overnight at 4° C. and the plates were then washed 4× with MSD Tris Wash Buffer. The SULFO-TAG anti-pTyr antibody from MSD was diluted to 20 nM final in 1% Blocker A (MSD) solution and added to the washed plates and incubated for 1.5-2 h before addition of read buffer (MSD). The plates were read on the Sector 6000 instrument (MSD). Raw data was imported in Abase and EC50s calculated with XL-fit data analysis software.

[3] = target: T3, cytoplasmic domain of the human CSF-1R (Homo sapiens, UniProt P07333); test: In vitro kinase assay for CSF-1R (AlphaScreen); assay type: biochemical; settings: tested at about 1 μM; read-out: CSF1RK 1 percent inhibition
T3 construct: Recombinant protein corresponding to the cytoplasmic domain of the human CSF-1R; purchased Invitrogen Corporation, Carlsbad, Calif; PV3249
T3 sequence (P07333 539-972 limits assumed): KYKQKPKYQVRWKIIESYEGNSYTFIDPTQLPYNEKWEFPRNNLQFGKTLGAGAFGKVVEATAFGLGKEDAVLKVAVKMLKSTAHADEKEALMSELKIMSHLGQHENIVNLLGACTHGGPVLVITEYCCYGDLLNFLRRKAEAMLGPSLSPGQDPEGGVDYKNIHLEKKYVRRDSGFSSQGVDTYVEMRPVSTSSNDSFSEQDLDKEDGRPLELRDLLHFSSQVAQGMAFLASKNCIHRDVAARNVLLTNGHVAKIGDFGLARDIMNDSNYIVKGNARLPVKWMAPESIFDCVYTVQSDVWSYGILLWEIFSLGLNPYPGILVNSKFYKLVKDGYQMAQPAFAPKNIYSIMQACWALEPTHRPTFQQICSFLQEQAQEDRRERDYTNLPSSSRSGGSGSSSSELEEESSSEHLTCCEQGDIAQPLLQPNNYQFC
Procedure, shortened: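 Recombinant CSF-1R cytoplasmic domain (4 nM) phosphorylated biotinylated peptide (0.05 μM) at 1.0 μM ATP in HEPES with Mg2+/Mn2+, 2 h at room temperature, compounds from 25 μM in 3-fold steps. AlphaScreen anti-phosphotyrosine PT66 detection; IC50 by non-linear regression.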

[4] = target: T4, cKIT (Homo sapiens, UniProt P10721); test: cKIT kinase in vitro biochemical assay (alphascreen); settings: tested at about 1 μM; read-out: CKIT percent inhibition
T4 construct: The kinase domain of cKIT was assayed in 50 mM Hepes; purchased Upstate 14-559

[5] = tested on: MNFS60 (murine AML cells); test: Cell viability assay in MCSF dependent MNFS60 cells (Cell Titer Glo); assay type: cell-based; settings: Mus musculus; tested at about 1 μM; MCSF 10 ng/mL, 72 hrs; read-out: CPEC50 MNFS60MCSF percent inhibition
Protocol: Cell viability was assessed by Cell Titer Glo, Promega. MNFS60 (murine AML cells) were seeded in TC treated 96-well plates at a density of 5,000 cells per well in RPMI-1640, 10% FBS, and 1% Penicillin Streptomycin prior to addition of compound. Test compounds were serially diluted (3 fold) in DMSO to 500× the final concentration. For each concentration of test compound, 2 μl (500×) aliquots of compound or 100% DMSO (control) were diluted in 500 μl of culture medium that contained 2× final concentration of growth factor MCSF for 2× concentration and then diluted 1× on the cells. Final concentration of MCSF is 10 ng/mL. Cells were incubated for 72 hrs at 37° C., 5% CO2. After the incubation 100 μl Cell Titer Glo is added to each well to determine viable cells. The assay was performed according to the manufacturer's instruction (Promega Corporation, Madison, Wis. USA). Each experimental condition was performed in triplicate. Raw data was imported in Abase and EC50s calculated with XL-fit data analysis software: Relative light units of wells that contained cells without MCSF in the media and as a consequence didn't grow were defined as 100% inhibited.

T2 sequence (P07333 20-972): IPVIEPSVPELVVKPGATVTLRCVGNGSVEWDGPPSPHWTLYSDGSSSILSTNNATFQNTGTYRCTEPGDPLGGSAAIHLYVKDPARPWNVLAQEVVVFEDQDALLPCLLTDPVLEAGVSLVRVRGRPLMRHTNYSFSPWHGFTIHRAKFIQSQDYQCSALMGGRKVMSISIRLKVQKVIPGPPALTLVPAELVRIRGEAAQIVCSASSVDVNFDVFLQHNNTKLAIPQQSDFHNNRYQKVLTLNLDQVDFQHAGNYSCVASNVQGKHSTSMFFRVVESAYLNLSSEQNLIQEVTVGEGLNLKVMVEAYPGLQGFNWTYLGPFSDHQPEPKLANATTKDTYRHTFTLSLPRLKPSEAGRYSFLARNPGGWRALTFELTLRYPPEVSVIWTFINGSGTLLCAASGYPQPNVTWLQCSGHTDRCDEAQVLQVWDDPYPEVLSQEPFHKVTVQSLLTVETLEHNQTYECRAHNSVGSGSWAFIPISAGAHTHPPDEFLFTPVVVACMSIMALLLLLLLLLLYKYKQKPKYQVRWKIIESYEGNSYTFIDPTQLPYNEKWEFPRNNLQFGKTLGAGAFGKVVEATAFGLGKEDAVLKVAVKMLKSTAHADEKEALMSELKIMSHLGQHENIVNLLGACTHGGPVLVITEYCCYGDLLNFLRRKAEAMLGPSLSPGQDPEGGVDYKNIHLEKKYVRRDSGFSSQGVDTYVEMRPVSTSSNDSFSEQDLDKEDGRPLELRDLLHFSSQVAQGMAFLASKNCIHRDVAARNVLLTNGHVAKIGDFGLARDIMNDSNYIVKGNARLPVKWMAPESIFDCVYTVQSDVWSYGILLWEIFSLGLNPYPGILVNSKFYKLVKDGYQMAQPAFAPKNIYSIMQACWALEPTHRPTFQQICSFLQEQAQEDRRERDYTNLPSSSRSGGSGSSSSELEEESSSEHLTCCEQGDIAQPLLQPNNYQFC
T1 sequence (P09619 600-962 limits assumed): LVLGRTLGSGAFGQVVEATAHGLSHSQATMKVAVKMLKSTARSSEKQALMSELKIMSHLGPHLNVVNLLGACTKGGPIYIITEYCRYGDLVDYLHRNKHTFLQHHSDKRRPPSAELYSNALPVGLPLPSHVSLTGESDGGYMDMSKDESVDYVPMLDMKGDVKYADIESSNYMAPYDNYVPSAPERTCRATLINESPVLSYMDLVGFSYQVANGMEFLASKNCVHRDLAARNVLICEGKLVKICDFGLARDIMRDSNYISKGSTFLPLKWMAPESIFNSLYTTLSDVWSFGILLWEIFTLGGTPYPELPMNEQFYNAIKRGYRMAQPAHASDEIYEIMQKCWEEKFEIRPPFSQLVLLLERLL
T4 sequence (P10721 589-937 limits assumed): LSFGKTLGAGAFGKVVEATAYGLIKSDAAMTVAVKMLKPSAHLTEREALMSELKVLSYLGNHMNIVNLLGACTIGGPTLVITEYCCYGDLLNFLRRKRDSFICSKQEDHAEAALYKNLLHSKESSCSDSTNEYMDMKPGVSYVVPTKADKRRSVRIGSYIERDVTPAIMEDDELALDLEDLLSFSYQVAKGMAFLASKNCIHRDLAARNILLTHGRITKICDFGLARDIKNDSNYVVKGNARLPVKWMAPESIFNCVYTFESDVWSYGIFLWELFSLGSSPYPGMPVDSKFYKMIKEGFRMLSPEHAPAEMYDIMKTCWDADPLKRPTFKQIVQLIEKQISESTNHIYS

inhibition at 1 µM [1] | inhibition at 1 µM [2] | inhibition at 1 µM [3] | inhibition at 1 µM [4] | Compound | inhibition at 1 µM [5]
25% | 88% | 100% | 18% | O[C@@H]1CCCC[C@H]1Nc1nc2ccc(Oc3ccnc(-c4ccncc4)n3)cc2s1 [Compound 28, (1R,2R)-2-(6-(2-(pyridin-4-yl)pyrimidin-4-yloxy)benzo [d]thiazol-2-ylamino) cyclohexanol] | 67%
6% | 59% | 100% | 29% | C[C@H](Nc1nc2ccc(Oc3ccnc(-c4cccnc4)n3)cc2s1)C1CCCCC1 [Compound 31, (S)-N-(1-cyclohexylethyl)-6-(2-(pyridin-3-yl)pyrimidin-4-yloxy)benzo[d] thiazol-2-amine] | 58%
23% | 93% | 100% | 27% | O[C@@H]1CCCC[C@H]1Nc1nc2ccc(Oc3cncc(-c4cn[nH]c4)n3)cc2s1 [Compound 92, (1R,2R)-2-(6-(6-(1H-pyrazol-4-yl)pyrazin-2-yloxy)benzo [d]thiazol-2-ylamino) cyclohexanol] | 70%
5% | 93% | 100% | 60% | O[C@@H]1CCCC[C@H]1Nc1nc2ccc(Oc3cncc(Br)c3)cc2s1 [Compound 45, (1R,2R)-2-(6-(5-bromopyridin-3-yloxy)benzo[d]thiazol-2-ylamino)cyclohexanol] | 96%
8% | 95% | 100% | 54% | O[C@@H]1CCCC[C@H]1Nc1nc2ccc(Oc3cncc(-c4ccc(F)cc4)c3)cc2s1 [Compound 64, (1R,2R)-2-(6-(5-(4-fluorophenyl)pyridin-3-yloxy)benzo [d]thiazol-2-ylamino) cyclohexanol] | 100%
19% | 91% | 100% | 24% | Nc1ccc(-c2cncc(Oc3ccc4nc(N[C@@H]5CCCC[C@H]5O)sc4c3)n2)cn1 [Compound 97, (1R,2R)-2-(6-(6-(6-aminopyridin-3-yl)pyrazin-2-yloxy)benzo[d]thiazol-2-ylamino)cyclohexanol] | 62%
82% | – | 100% | 99% | Cn1cc(-c2cc(Oc3ccc4nc(NCC5CCCCC5)sc4c3)ncn2)cn1 [Compound 20, N-(cyclohexylmethyl)-6-(6-(1-methyl-1H-pyrazol-4-yl)pyrimidin-4-yloxy)benzo[d]thiazol-2-amine] | 96%
3% | – | 99% | 44% | N#Cc1ccc(-c2cncc(Oc3ccc4nc(N[C@@H]5CCCC[C@H]5O)sc4c3)c2)cn1 [Compound 73, 5′-(2-((1R,2R)-2-hydroxycyclohexylamino)benzo[d]thiazol-6-yloxy)-3,3′-bipyridine-6-carbonitrile] | 23%
1% | – | 100% | 63% | Nc1ccc(-c2cncc(Oc3ccc4nc(N[C@@H]5CCCC[C@H]5O)sc4c3)c2)cn1 [Compound 47, (1R,2R)-2-(6-(6′-amino-3,3′-bipyridin-5-yloxy)benzo[d]thiazol-2-ylamino) cyclohexanol] | 100%
11% | – | 100% | 13% | Nc1ccc(-c2nccc(Oc3ccc4nc(N[C@@H]5CCCC[C@H]5O)sc4c3)n2)cn1 [Compound 29, (1R,2R)-2-(6-(2-(6-aminopyridin-3-yl)pyrimidin-4-yloxy)benzo[d]thiazol-2-ylamino)cyclohexanol] | 76%
0% | – | 99% | 28% | C[C@H](Nc1nc2ccc(Oc3cc(-n4cncn4)ncn3)cc2s1)C1CCCCC1 [Compound 41, (S)-6-(6-(1H-1,2,4-triazol-1-yl)pyrimidin-4-yloxy)-N-(1-cyclohexylethyl) benzo[d]thiazol-2-amine] | 0%
6% | – | 100% | 21% | C[C@H](Nc1nc2ccc(Oc3ccnc(-c4ccnn4C)n3)cc2s1)C1CCCCC1 [Compound 34, (S)-N-(1-cyclohexylethyl)-6-(2-(1-methyl-1H-pyrazol-5-yl)pyrimidin-4-yloxy)benzo[d]thiazol-2-amine] | 19%
11% | – | 100% | 25% | O[C@@H]1CCCC[C@H]1Nc1nc2ccc(Oc3cnccc3Cl)cc2s1 [Compound 7, (1R,2R)-2-(6-(4-chloropyridin-3-yloxy)benzo[d]thiazol-2-ylamino) cyclohexanol] | 42%
0% | – | 69% | 22% | Cn1nccc1-c1cc(Oc2ccc3nc(N[C@@H]4CCCC[C@H]4O)sc3c2)ncn1 [Compound 25, (1R,2R)-2-(6-(6-(1-methyl-1H-pyrazol-5-yl)pyrimidin-4-yloxy)benzo[d]thiazol-2-ylamino) cyclohexanol] | 14%
8% | – | 100% | 18% | O[C@@H]1CCCC[C@H]1Nc1nc2ccc(Oc3cncc(-c4cnn(CCN5CCOCC5)c4)n3)cc2s1 [Compound 95, (1R,2R)-2-(6-(6-(1-(2-morpholinoethyl)-1H-pyrazol-4-yl)pyrazin-2-yloxy)benzo[d]thiazol-2-ylamino)cyclohexanol] | 47%
0% | – | 100% | 24% | CN(C)c1ncc(-c2cncc(Oc3ccc4nc(N[C@@H]5CCCC[C@H]5O)sc4c3)c2)cn1 [Compound 76, (1R,2R)-2-(6-(5-(2-(dimethylamino)pyrimidin-5-yl)pyridin-3-yloxy)benzo [d]thiazol-2-ylamino) cyclohexanol] | 54%
34% | – | 100% | 66% | Clc1ccncc1Oc1ccc2nc(NCC3CCCCC3)sc2c1 [Compound 1, 6-(4-chloropyridin-3-yloxy)-N-(cyclohexylmethyl)benzo[d]thiazol-2-amine] | 22%

Compound | inhibition at 1 µM [1] | inhibition at 1 µM [2] | inhibition at 1 µM [3] | inhibition at 1 µM [4] | inhibition at 1 µM [5]
O[C@@H]1CCCC[C@H]1Nc1nc2ccc(Oc3cncc(C4=CCNCC4)c3)cc2s1 [Compound 85, (1R,2R)-2-(6-(5-(1,2,3,6-tetrahydropyridin-4-yl)pyridin-3-yloxy)benzo[d]thiazol-2-ylamino)cyclohexanol] | 2% | – | 96% | 13% | 13%
